What all share (format): in vivo
The subject of assay [1] is Morningglory. Kind of assay: Preemergence Herbicidal Activity, Morningglory. As to conditions: Ipomoea, pre-emergence; for pest or weed control at 500 g/ha: 0.5 kg/ha. The text has this: (§1) The herbicidal data in the following Tables 3 and 4 was obtained in the manner described in PCT published application no. WO 85/01939, previously mentioned, usually employing solutions of the herbicidal compound in 50/50 acetone/water mixtures. In those tables, the test compounds are identified by numbers which correspond to those in Table 1, "kg/ha" is kilograms per hectare, and "% C" is percent control.

In assay [2] the test system is Cotton. As to the kind of experiment: Postemergence Herbicidal Activity, Cotton. The settings on record: Gossypium hirsutum, post-emergence.
Excerpt: as §1

Assay [3] has as its system Barnyardgrass. Kind of assay: Preemergence Herbicidal Activity, Barnyardgrass. The settings on record: Echinochloa crus-galli, pre-emergence; for pest or weed control at 500 g/ha: 0.5 kg/ha. The text has this:
(§2) The herbicidal data in the following Tables 3 and 4 was obtained in the manner described in PCT published application no. […] In those tables, the test compounds are identified by numbers which correspond to those in Table 1, "kg/ha" is kilograms per hectare, and "% C" is percent control.

Assay [4] concerns Field Corn. As to the kind of experiment: Postemergence Herbicidal Activity, Field Corn. The settings on record: Zea mays, post-emergence.
Excerpt: as §2

For assay [5], the system named is Wheat. As to the kind of experiment: Preemergence Herbicidal Activity, Wheat. The settings on record: Triticum aestivum, pre-emergence; for plant injury at 500 g/ha: 0.5 kg/ha.
Excerpt: as §2

Assay [6] concerns Johnsongrass. As to the kind of experiment: Postemergence Herbicidal Activity, Johnsongrass. The settings on record: Sorghum halepense, post-emergence.
Excerpt: as §2

In assay [7] the test system is Velvetleaf. As to the kind of experiment: Preemergence Herbicidal Activity, Velvetleaf. As to conditions: Abutilon theophrasti, pre-emergence; for pest or weed control at 500 g/ha: 0.5 kg/ha.
Excerpt: as §1

For assay [8], the system named is Soybean. As to the kind of experiment: Preemergence Herbicidal Activity, Soybean. As to conditions: Glycine max, pre-emergence; for plant injury at 500 g/ha: 0.5 kg/ha.
Excerpt: as §2

The test system of assay [9] is Barnyardgrass. As to the kind of experiment: Postemergence Herbicidal Activity, Barnyardgrass. As to conditions: Echinochloa crus-galli, post-emergence.
Excerpt: as §2

The subject of assay [10] is Wheat. Kind of assay: Postemergence Herbicidal Activity, Wheat. The settings on record: Triticum aestivum, post-emergence.
Excerpt: as §2

The test system of assay [11] is Green Foxtail. As to the kind of experiment: Postemergence Herbicidal Activity, Green Foxtail. As to conditions: Setaria viridis, post-emergence.
Excerpt: as §2

Assay [12] relates to Field Corn. As to the kind of experiment: Preemergence Herbicidal Activity, Field Corn. As to conditions: Zea mays, pre-emergence; for plant injury at 500 g/ha: 0.5 kg/ha.
Excerpt: as §2

Assay [13] concerns Morningglory. Kind of assay: Postemergence Herbicidal Activity, Morningglory. As to conditions: Ipomoea, post-emergence.
Excerpt: as §1

The subject of assay [14] is Cotton. Kind of assay: Preemergence Herbicidal Activity, Cotton. The settings on record: Gossypium hirsutum, pre-emergence; for plant injury at 500 g/ha: 0.5 kg/ha.
Excerpt: as §1

In assay [15] the test system is Soybean. As to the kind of experiment: Postemergence Herbicidal Activity, Soybean. As to conditions: Glycine max, post-emergence.
Excerpt: as §2

Assay [16] concerns Velvetleaf. Kind of assay: Postemergence Herbicidal Activity, Velvetleaf. The settings on record: Abutilon theophrasti, post-emergence.
Excerpt: as §1

In assay [17] the test system is Green Foxtail. Kind of assay: Preemergence Herbicidal Activity, Green Foxtail. As to conditions: Setaria viridis, pre-emergence; for pest or weed control at 500 g/ha: 0.5 kg/ha.
Excerpt: as §2

The test system of assay [18] is Johnsongrass. Kind of assay: Preemergence Herbicidal Activity, Johnsongrass. The settings on record: Sorghum halepense, pre-emergence; for pest or weed control at 500 g/ha: 0.5 kg/ha.
Excerpt: as §2

The test system of assay [19] is Rice. Kind of assay: Preemergence Herbicidal Activity, Rice. As to conditions: Oryza sativa, pre-emergence; for plant injury at 500 g/ha: 0.5 kg/ha.
Excerpt: as §2

Assay [20] has as its system Rice. Kind of assay: Postemergence Herbicidal Activity, Rice. The settings on record: Oryza sativa, post-emergence, 0.5 kg/ha.
Excerpt: as §2

In another assay the test system is Field Bindweed. Kind of assay: Preemergence Herbicidal Activity, Field Bindweed. The settings on record: pre-emergence, 2.0 kg/ha.
Excerpt: as §1

As a reminder, the pest or weed control is the degree to which the test organism was suppressed or injured, in per cent. Read a high pest or weed control as a strong effect. One may read the plant injury as how far the test organism was held down. Higher therefore signals a strong effect. Regarding `CS(=O)(=O)N(c1cc(-n2nnn(CCCF)c2=O)c(F)cc1Cl)S(C)(=O)=O` [Compound 9], the pest or weed control at 1000 g/ha in the assay on Morningglory [1] (1.0 kg/ha) was determined as 100%; with Barnyardgrass [3] (1.0 kg/ha), 100%; in the assay with Johnsongrass [6] (1.0 kg/ha), 70%; in the assay with Velvetleaf [7] (1.0 kg/ha) it was 100%; with Barnyardgrass [9] (1.0 kg/ha), 100%; with Green Foxtail [11] (1.0 kg/ha), 60%. In addition, the pest or weed control at 1000 g/ha in the assay on Morningglory [13] (1.0 kg/ha) worked out at 100%; in the assay with Velvetleaf [16] (1.0 kg/ha), 100%; with Green Foxtail [17] (1.0 kg/ha) it was 100%; in the assay with Johnsongrass [18] (1.0 kg/ha), 80%. Also, the plant injury at 1000 g/ha came to 100% in the assay on Cotton [2] (1.0 kg/ha); 30% in the assay with Field Corn [4] (1.0 kg/ha); 90% in the assay with Wheat [5] (1.0 kg/ha); 50% with Soybean [8] (1.0 kg/ha); 80% in the assay with Wheat [10] (1.0 kg/ha); 100% in the assay on Field Corn [12] (1.0 kg/ha). For the same compound, the plant injury at 1000 g/ha in the assay on Cotton [14] (1.0 kg/ha) amounted to 100%; in the assay on Soybean [15] (1.0 kg/ha) it was 30%.

With `CCS(=O)(=O)N(c1cc(-n2nnn(CCCF)c2=O)c(F)cc1Cl)S(=O)(=O)CC` [Compound 21, 1-[4-chloro-2-fluoro-5-[bis(N--ethylsulfonyl)amino]phenyl]-1,4-dihydro-4-(3-fluoropropyl)-5H--tetrazol-5-one], the pest or weed control at 500 g/ha in the assay on Morningglory [1] amounted to 95%; with Barnyardgrass [3] it was 100%; with Velvetleaf [7], 100%; with Green Foxtail [17], 100%; in the assay with Johnsongrass [18], 100%. Also, the plant injury at 500 g/ha is 95% with Wheat [5]; 20% in the assay with Soybean [8]; 80% with Rice [19]; 90% with Field Corn [12]; 95% in the assay on Cotton [14].

Take `CCCS(=O)(=O)N(c1cc(-n2nnn(CCCF)c2=O)c(F)cc1Cl)S(=O)(=O)CCC` [Compound 26, 1-[4-chloro-2-fluoro-5-[bis(N--propylsulfonyl)amino]phenyl]-1,4-dihydro-4-(3-fluoropropyl)-5H--tetrazol-5-one]: the pest or weed control at 500 g/ha in the assay on Morningglory [1] is 60%; in the assay on Barnyardgrass [3], 100%; in the assay with Johnsongrass [6] (0.5 kg/ha), 70%; in the assay with Velvetleaf [7], 100%; in the assay with Barnyardgrass [9] (0.5 kg/ha), 80%; in the assay with Green Foxtail [11] (0.5 kg/ha), 80%. For the same compound, the pest or weed control at 500 g/ha came out at 100% in the assay with Morningglory [13] (0.5 kg/ha), 100% in the assay on Velvetleaf [16] (0.5 kg/ha), 60% in the assay with Green Foxtail [17] and 95% in the assay with Johnsongrass [18]. For the same compound, the plant injury at 500 g/ha in the assay with Cotton [2] (0.5 kg/ha) stood at 100%; in the assay on Field Corn [4] (0.5 kg/ha), 100%; in the assay with Wheat [5], 60%; in the assay on Soybean [8], 0%; in the assay on Wheat [10] (0.5 kg/ha), 90%; in the assay with Rice [20], 40%. For the same compound, the plant injury at 500 g/ha in the assay on Rice [19] amounted to 20%; in the assay on Field Corn [12] it was 90%; with Cotton [14], 50%; in the assay with Soybean [15] (0.5 kg/ha), 50%.

Consider `CCS(=O)(=O)N(c1cc(-n2nnn(C)c2=O)c(F)cc1Cl)S(=O)(=O)CC` [Compound 41, 1-[4-Chloro-2-fluoro-5-[bis(N--ethylsulfonyl)amino]phenyl]-4,5-dihydro-4-methyl-5H--tetrazol-5-one], for which the pest or weed control at 2000 g/ha turned out to be 100% in the assay with Morningglory [1] (2.0 kg/ha); 80% in the assay on Barnyardgrass [3] (2.0 kg/ha); 100% with Field Bindweed; 100% with Velvetleaf [7] (2.0 kg/ha); 95% with Green Foxtail [17] (2.0 kg/ha); 20% in the assay with Johnsongrass [18] (2.0 kg/ha). For the same compound, the plant injury at 2000 g/ha in the assay with Wheat [5] (2.0 kg/ha) amounted to 10%; in the assay with Soybean [8] (2.0 kg/ha), 50%; in the assay on Rice [19] (2.0 kg/ha), 10%; in the assay with Field Corn [12] (2.0 kg/ha), 40%; with Cotton [14] (2.0 kg/ha), 95%.

(Values after patent publication US4868321A, “Isothiocyanate intermediates” (FMC Corporation, priority 1988, dated 1989).)
